Measurements reported in patent publication US10106501B2, “Nuclear receptor modulators” (AbbVie Inc., priority 2015, dated 2018).

Biological target: T1, chimeric human RORγ-Gal4 receptor (Homo sapiens, UniProt P51449)
T1 sequence (P51449 269-508 limits assumed): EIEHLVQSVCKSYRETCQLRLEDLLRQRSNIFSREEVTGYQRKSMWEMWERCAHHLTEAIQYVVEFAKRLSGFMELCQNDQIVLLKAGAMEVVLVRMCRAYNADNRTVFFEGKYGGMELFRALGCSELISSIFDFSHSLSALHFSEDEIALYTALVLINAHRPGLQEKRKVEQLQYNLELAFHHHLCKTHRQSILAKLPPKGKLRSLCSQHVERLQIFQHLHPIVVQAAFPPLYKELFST
Experiment: transient transactivation assay (RORγ-Gal4 luciferase reporter)
Format: cell-based
Details: Cos-7 cells transfected with RORγ-Gal4 and 5Gal4 pGL3 TK Luc reporter; overnight incubation; T0901317 at 10^-5 M as reference; read-out: IC50

Row | IC50 | SMILES
1 | 100 to 500 nM | Cc1cc(C(F)(F)F)cc2c1nc(Cc1c(Cl)ccc(CN3CCC(C(C)O)CC3)c1Cl)n2C (centres unmarked) [BW-13]
2 | 100 to 500 nM | Cc1cc(C(F)(F)F)cc2c1nc(Cc1c(Cl)ccc(CN3CCC(CO)CC3)c1Cl)n2C [BW-14]
3 | 100 to 500 nM | Cc1cc(C(F)(F)F)cc2c1nc(Cc1c(Cl)ccc(CN3CCN(CC(F)(F)F)CC3)c1Cl)n2C [BW-15]
4 | 1000 to 10000 nM | Cc1cc(C(F)(F)F)cc2c1nc(Cc1c(Cl)ccc(CN3CCC(N(C)C)CC3)c1Cl)n2C [BW-16]
5 | 100 to 500 nM | Cc1cc(C(F)(F)F)cc2c1nc(Cc1c(Cl)ccc(CN3CCCC(C)(O)C3)c1Cl)n2C (centres unmarked) [BW-17]
6 | 500 to 1000 nM | CCN(CCO)Cc1ccc(Cl)c(Cc2nc3c(C)cc(C(F)(F)F)cc3n2C)c1Cl [BW-18]
7 | < 100 nM | Cc1cc(C#N)nc2c1cc(Cc1c(Cl)ccc(C(=O)N3CCC(O)CC3)c1Cl)n2C [CL-1]
8 | < 100 nM | Cc1cc(C#N)nc2c1cc(Cc1c(Cl)ccc(C(=O)N3CCC(C4COC4)CC3)c1Cl)n2C [CL-2]
9 | < 100 nM | Cc1cc(Cl)nc2c1cc(Cc1c(Cl)ccc(C(=O)N3CCOCC3)c1Cl)n2C [CM1, (2,4-dichloro-3-((6-chloro-1,4-dimethyl-1H-pyrrolo[2,3-b]pyridin-2-yl)methyl)phenyl)(morpholino)methanone]
10 | 100 to 500 nM | Cc1cc(C(F)(F)F)cn2c(C)c(Cc3c(Cl)ccc(C(=O)N4CCC(CCO)CC4)c3Cl)nc12 [CT-2]
11 | < 100 nM | Cc1cc(C(F)(F)F)cn2c(C)c(Cc3c(Cl)ccc(C(=O)N4CCC(C(C)(C)O)CC4)c3Cl)nc12 [CT-3]
12 | > 10000 nM | Cc1cc(C(F)(F)F)cn2c(C)c(Cc3c(Cl)ccc(C(=O)N4CCC(O)C4)c3Cl)nc12 (centres unmarked) [CT-4]
13 | 500 to 1000 nM | Cc1cc(C(F)(F)F)cn2c(C)c(Cc3c(Cl)ccc(C(=O)N4CCC(N(C)C)CC4)c3Cl)nc12 [CT-5]
14 | < 100 nM | COC1CCN(C(=O)c2ccc(Cl)c(Cc3nc4c(C)cc(C(F)(F)F)cn4c3C)c2Cl)CC1 [CT-6]
15 | < 100 nM | COCCC1CCN(C(=O)c2ccc(Cl)c(Cc3nc4c(C)cc(C(F)(F)F)cn4c3C)c2Cl)CC1 [CT-7]
16 | < 100 nM | Cc1cc(C(F)(F)F)cn2c(C)c(Cc3c(Cl)ccc(C(=O)N4CCC(C5COC5)CC4)c3Cl)nc12 [CT-8]
17 | 100 to 500 nM | Cc1cc(C(F)(F)F)cn2c(C)c(Cc3c(Cl)ccc(C(=O)N4CCN(C5COC5)CC4)c3Cl)nc12 [CT-9]
18 | 100 to 500 nM | Cc1cc(C(F)(F)F)cn2c(C)c(Cc3c(Cl)ccc(C(=O)N4CCC(C(C)O)CC4)c3Cl)nc12 (centres unmarked) [CT-11]
19 | 100 to 500 nM | Cc1cc(C#N)cn2c(C)c(Cc3c(Cl)ccc(C(=O)N4CCC(C5COC5)CC4)c3Cl)nc12 [CV-5]
20 | 100 to 500 nM | Cc1cc(C(F)(F)F)nn2c(C)c(Cc3c(Cl)ccc(C(=O)N4CCN(C5COC5)CC4)c3Cl)nc12 [CZ-1]
21 | < 100 nM | Cc1cc(C(F)(F)F)nn2c(C)c(Cc3c(Cl)ccc(C(=O)N4CCC(C5COC5)CC4)c3Cl)nc12 [CZ-2]
22 | 100 to 500 nM | Cc1cc(C(F)(F)F)nn2c(C)c(Cc3c(Cl)ccc(C(=O)N4CCN(S(C)(=O)=O)[C@H](C)C4)c3Cl)nc12 [CZ-3]
23 | < 100 nM | Cc1nn(Cc2c(Cl)ccc(C(=O)N3CCC(C4COC4)CC3)c2Cl)c2c(C)cc(C(F)(F)F)cc12 [DD-1, (2,4-dichloro-3-((3,7-dimethyl-5-(trifluoromethyl)-1H-indazol-1-yl)methyl)phenyl)(4-(oxetan-3-yl)piperidin-1-yl)methanone]

The next lines start with the molecule.

Row | SMILES | IC50
24 | Cn1c(Cc2c(Cl)ccc(C(=O)N3CCOCC3)c2Cl)nc2c(C(F)(F)F)cc(Br)cc21 [CE, (3-((6-bromo-1-methyl-4-(trifluoromethyl)-1H-benzo[d]imidazol-2-yl)methyl)-2,4-dichlorophenyl)(morpholino)methanone] | 100 to 500 nM
25 | Cn1c(Cc2c(Cl)ccc(C(=O)N3CCOCC3)c2Cl)nc2c(C(F)(F)F)cc(C#N)cc21 [CF, 2-(2,6-dichloro-3-(morpholine-4-carbonyl)benzyl)-1-methyl-4-(trifluoromethyl)-1H-benzo[d]imidazole-6-carbonitrile] | 500 to 1000 nM
26 | CCn1c(Cc2c(Cl)ccc(C(=O)N3CCOCC3)c2Cl)nc2c(C)cc(C#N)cc21 [CG, 2-(2,6-dichloro-3-(morpholine-4-carbonyl)benzyl)-1-ethyl-4-methyl-1H-benzo[d]imidazole-6-carbonitrile] | 500 to 1000 nM
27 | Cc1cc(C#N)cc2c1nc(Cc1c(Cl)ccc(C(=O)N3CCOCC3)c1Cl)n2C(C)C [CH, 2-(2,6-dichloro-3-(morpholine-4-carbonyl)benzyl)-1-isopropyl-4-methyl-1H-benzo[d]imidazole-6-carbonitrile] | < 100 nM
28 | Cc1cc(C#N)nc2c1nc(Cc1c(Cl)ccc(C(=O)N3CCOCC3)c1Cl)n2C [CI, 2-(2,6-dichloro-3-(morpholine-4-carbonyl)benzyl)-3,7-dimethyl-3H-imidazo[4,5-b]pyridine-5-carbonitrile] | 1000 to 10000 nM
29 | Cn1c(Cc2c(Cl)ccc(C(=O)N3CCOCC3)c2Cl)cc2c(Cl)cc(C#N)cc21 [CJ, 4-chloro-2-(2,6-dichloro-3-(morpholine-4-carbonyl)benzyl)-1-methyl-1H-indole-6-carbonitrile] | 1000 to 10000 nM
30 | Cn1c(Cc2c(Cl)ccc(C(=O)N3CCOCC3)c2Cl)cc2cccnc21 [CK, (2,4-dichloro-3-((1-methyl-1H-pyrrolo[2,3-b]pyridin-2-yl)methyl)phenyl)(morpholino)methanone] | 1000 to 10000 nM
31 | Cc1cc(C(F)(F)F)nc2c1cc(Cc1c(Cl)ccc(C(=O)N3CCOCC3)c1Cl)n2C [CM, (2,4-dichloro-3-((1,4-dimethyl-6-(trifluoromethyl)-1H-pyrrolo[2,3-b]pyridin-2-yl)methyl)phenyl)(morpholino)methanone] | < 100 nM
32 | Cn1c(C(=O)c2c(Cl)ccc(C(=O)N3CCOCC3)c2Cl)cc2ncc(C(F)(F)F)cc21 [CP, (2,4-dichloro-3-(1-methyl-6-(trifluoromethyl)-1H-pyrrolo[3,2-b]pyridine-2-carbonyl)phenyl)(morpholino)methanone] | 1000 to 10000 nM
33 | Cc1cc(C(F)(F)F)nn2c(C)c(Cc3c(Cl)ccc(C(=O)N4CCOCC4)c3Cl)nc12 [CZ, (2,4-dichloro-3-((3,8-dimethyl-6-(trifluoromethyl)imidazo[1,2-b]pyridazin-2-yl)methyl)phenyl)(morpholino)methanone] | < 100 nM
34 | Cc1cc(C(F)(F)F)nn2c(C)c(C(=O)c3c(Cl)ccc(C(=O)N4CCC(CC(=O)O)CC4)c3Cl)nc12 [CZ-1A, 2-(1-(2,4-dichloro-3-(3,8-dimethyl-6-(trifluoromethyl)imidazo[1,2-b]pyridazine-2-carbonyl)benzoyl)piperidin-4-yl)acetic acid] | 100 to 500 nM
35 | Cc1cc(C(F)(F)F)cc2c1cc(Cc1c(Cl)ccc(C(=O)N3CCOCC3)c1Cl)n2C [D, (2,4-dichloro-3-((1,4-dimethyl-6-(trifluoromethyl)-1H-indol-2-yl)methyl)phenyl)(morpholino)methanone] | < 100 nM
36 | Cc1cc(C#N)nn2c(C)c(Cc3c(Cl)ccc(C(=O)N4CCOCC4)c3Cl)nc12 [DA, 2-(2,6-dichloro-3-(morpholine-4-carbonyl)benzyl)-3,8-dimethylimidazo[1,2-b]pyridazine-6-carbonitrile] | 1000 to 10000 nM
37 | Cc1cc2nc(Cc3c(Cl)ccc(C(=O)N4CCOCC4)c3Cl)c(C)n2nc1C#N [DB, 2-(2,6-dichloro-3-(morpholine-4-carbonyl)benzyl)-3,7-dimethylimidazo[1,2-b]pyridazine-6-carbonitrile] | 1000 to 10000 nM
38 | Cc1cc(C(F)(F)F)nc2c1nc(Cc1c(Cl)ccc(C(=O)N3CCOCC3)c1Cl)n2C [DC, (2,4-dichloro-3-((3,7-dimethyl-5-(trifluoromethyl)-3H-imidazo[4,5-b]pyridin-2-yl)methyl)phenyl)(morpholino)methanone] | 1000 to 10000 nM
39 | Cc1nn(Cc2c(Cl)ccc(C(=O)N3CCC(CC(=O)O)CC3)c2Cl)c2c(C)cc(C(F)(F)F)cc12 [DE, 2-(1-(2,4-dichloro-3-((3,7-dimethyl-5-(trifluoromethyl)-1H-indazol-1-yl)methyl)benzoyl)piperidin-4-yl)acetic acid] | < 100 nM
40 | Cc1cc(C(F)(F)F)cc2c(C)n(Cc3c(Cl)ccc(C(=O)N4CCC(CC(=O)O)CC4)c3Cl)nc12 [DG, 2-(1-(2,4-dichloro-3-((3,7-dimethyl-5-(trifluoromethyl)-2H-indazol-2-yl)methyl)benzoyl)piperidin-4-yl)acetic acid] | < 100 nM
41 | Cc1cn(Cc2c(Cl)ccc(C(=O)N3CC[C@H](C(=O)O)[C@H](C)C3)c2Cl)c2c(C)cc(C(F)(F)F)cc12 [DH1-1] | < 100 nM
42 | Cc1cn(Cc2c(Cl)ccc(C(=O)N3CC[C@@H](C(=O)O)[C@@H](C)C3)c2Cl)c2c(C)cc(C(F)(F)F)cc12 [DH1-2] | < 100 nM
43 | Cc1cn(Cc2c(Cl)ccc(C(=O)N3CCC(C(=O)O)CC3)c2Cl)c2c(C)cc(C(F)(F)F)cc12 [DH, 1-(2,4-dichloro-3-((3,7-dimethyl-5-(trifluoromethyl)-1H-indol-1-yl)methyl)benzoyl)piperidine-4-carboxylic acid] | < 100 nM
44 | Cc1cn(Cc2c(Cl)ccc(C(=O)N3CCC(CC(=O)O)CC3)c2Cl)c2c(C)cc(C(F)(F)F)cc12 [DI, 2-(1-(2,4-dichloro-3-((3,7-dimethyl-5-(trifluoromethyl)-1H-indol-1-yl)methyl)benzoyl)piperidin-4-yl)acetic acid] | < 100 nM
45 | Cc1cn(C(=O)c2c(Cl)ccc(C(=O)N3CCC(C(=O)O)CC3)c2Cl)c2c(C)cc(C(F)(F)F)cc12 [DJ1-1] | < 100 nM
46 | Cc1cn(C(=O)c2c(Cl)ccc(C(=O)N3CC[C@H](C(=O)O)[C@H](C)C3)c2Cl)c2c(C)cc(C(F)(F)F)cc12 [DJ1-2] | < 100 nM
47 | Cc1cn(C(=O)c2c(Cl)ccc(C(=O)N3CC[C@@H](C(=O)O)[C@@H](C)C3)c2Cl)c2c(C)cc(C(F)(F)F)cc12 [DJ1-3] | < 100 nM
